From US7553837B2, “Phenylazole compounds production process and antioxidants” (Nippon Soda Co., Ltd., priority 2003, dated 2009)
pIC50: −log10 of the molar value.

Key:
[1] = system: lipid peroxidation activity in a rat brain homogenate; experiment: In vitro lipid peroxidation inhibition (rat brain homogenate, thiobarbituric acid process); format: biochemical; settings: read-out: In vitro lipid peroxidation inhibition 50% inhibitory concentration (IC50 μM), 500 μM cysteine, 5 μM sulfuric acid monobasic iron, 100 mM KCl, 37° C. for 30 minutes
Description: (§1) An in vitro lipid peroxidation inhibition of the compounds of the present invention was evaluated by measuring a lipid peroxidation activity in a rat brain homogenate according to a process of Malvy, c., et al., Biochemical and Biophysical Research Communications, 1980, Vol. 95, p. 734-737. That is, a rat brain was extracted and a 5-fold amount of an aqueous phosphoric acid buffered saline solution (pH 7.4) (hereinafter abbreviated to PBS) was added to the brain under ice cooling, followed by homogenization using a Teflon homogenizer and further centrifugation at 10,000 g for 20 minutes to prepare a brain homogenate as a supernatant. To the brain homogenate thus prepared, 500 μM cysteine, 5 μM sulfuric acid monobasic iron and 100 mM KCl were added, followed by incubation at 37° C. for 30 minutes. Malondialdehyde produced by the […] of lipid peroxidation was measured by a thiobarbituric acid process.

[2] = system: lipid peroxidation in retina homogenate; experiment: Retina migration properties: ex vivo retinal lipid peroxidation production inhibition; format: in vivo; settings: SD male rats, retina taken after 30 minutes
Description: Retina migration properties of the compounds of the present invention were evaluated. To SD male rats (one group: 3 rats, 6 weeks old), a solution or suspension prepared by dissolving or suspending each of the test compounds in a 0.1N hydrochloric acid solution or a 1% poly oxy ethylene hydrogenated castor oil (NIKKOL HCO-60) solution was orally administered. After 30 minutes, both eyes were extracted and the retina was separated under ice cooling. A 5% homogenate solution of the retina was prepared in a 0.1M tris-hydrochloric acid buffer (pH 7.4) under ice cooling using a polytron homogenizer for a trace amount (NS-310E: manufactured by Nichion Irika Kiki Co., Ltd.) and, after autoxidation at 37° C. for one hour, the amount of lipid peroxidation produced was determined by a thiobarbituric acid process (MASUGI et al., vitamin 51, 21-29, 1977). A 30% inhibitory dose (ID30) was determined from the inhibition ratio at each dose. As is apparent from the results, the compounds of the present invention have an ex vivo retinal lipid peroxidation production inhibitory action and is also excellent in retina migration properties.

[3] = system: lipid peroxidation activity of each tissue homogenate (brain, heart and kidney); experiment: Tissue migration properties: ex vivo lipid peroxidation inhibition in brain, heart and kidney homogenates; settings: SD male rats, 100 mg/kg intraperitoneally, 30 minutes after administration
Description: as §1
Tissue migration properties of the compounds of the present invention were evaluated by measuring an ex vivo lipid peroxidation inhibition. A solution or suspension prepared by dissolving or suspending each of test compounds in an aqueous physiological saline solution or a 1% poly oxy ethylene hydrogenated castor oil (NIKKOL HCO-60, manufactured by Nikko Chemicals Co., Ltd.) physiological saline solution was intraperitoneally administered to SD male rats (one group: 3 rats, 6 weeks old) (available from Nippon SLC Co., Ltd.) at a dose of 100 mg/kg. 30 Minutes after administration, rats were bled to death by cutting the carotid artery and then the brain, heart and kidney were extracted. A lipid peroxidation activity of each tissue homogenate was measured by the process described in Example 18. An inhibition ratio in each tissue of the compounds of the present invention was determined from the amount of lipid peroxidation produced of a control group (physiological saline administration group) and a test compound administration group.

[4] = Acute oral toxicity, single oral dose, mortality rate after 7 days; settings: mouse, in vivo, male mice, observed for 7 days
Description: A single dose of each of the compounds of the present invention was orally administered to male mice. After observing for 7 days, a mortality rate was determined.

[5] = molecular target: T1, 15-LO obtained from reticulocyte of rabbit (Oryctolagus cuniculus, UniProt P12530); experiment: 15-lipoxygenase (15-LO) inhibitory activity, 15-HETE production; format: biochemical; settings: 15-LO from reticulocyte of rabbit, linoleic acid
T1 construct: 15-LO obtained from reticulocyte of rabbit; from tissue; host or cells: rabbit reticulocytes
T1 sequence (P12530 1-663): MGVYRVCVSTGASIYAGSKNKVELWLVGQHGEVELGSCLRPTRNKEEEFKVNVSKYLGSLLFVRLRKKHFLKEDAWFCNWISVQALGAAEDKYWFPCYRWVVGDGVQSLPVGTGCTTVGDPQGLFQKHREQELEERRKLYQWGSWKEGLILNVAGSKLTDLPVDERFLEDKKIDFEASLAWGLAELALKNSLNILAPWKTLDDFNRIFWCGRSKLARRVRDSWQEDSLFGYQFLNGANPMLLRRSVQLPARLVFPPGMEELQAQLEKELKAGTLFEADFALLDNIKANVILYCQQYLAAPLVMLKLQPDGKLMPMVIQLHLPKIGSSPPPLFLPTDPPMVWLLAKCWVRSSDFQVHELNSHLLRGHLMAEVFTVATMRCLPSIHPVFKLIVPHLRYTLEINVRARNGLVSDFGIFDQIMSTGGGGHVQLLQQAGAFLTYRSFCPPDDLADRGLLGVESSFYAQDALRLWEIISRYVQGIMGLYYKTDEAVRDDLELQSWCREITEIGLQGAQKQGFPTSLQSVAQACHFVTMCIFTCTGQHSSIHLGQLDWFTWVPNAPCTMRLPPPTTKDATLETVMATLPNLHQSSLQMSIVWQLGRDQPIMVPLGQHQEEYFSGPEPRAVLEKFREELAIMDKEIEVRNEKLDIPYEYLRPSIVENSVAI
Description: A 15-LO inhibitory activity was measured by a partially modified process of a process of Auerbach et al. (Auerbach B. J, et al., Anal. Biochem.: 201, 375-80, 1992). That is, 15-LO obtained from reticulocyte of rabbit and each of test compounds dissolved in DMSO (final concentration: 1%) were preincubated (4° C., 15 minutes) in phosphoric acid buffer (pH 7.4) and 256 μM linoleic acid was further added, followed by incubation (4° C., 10 minutes). The amount of 15-HETE produced as a result of incubation was determined by spectrophotometry (OD660nm) and 50% production inhibitory concentration (μM) against 15-LO of each test compound was calculated. Compounds (R-3) and (R-4) (edaravone) of the following formulas were used as a control drug.

Cc1c(C)c2c(c(C)c1N)CC(C)(CN1CCN(c3cccc(-n4ccnc4)c3)CC1)O2 (stereo not shown) [Compound B-1-18]
IC50 [1]: 0.25 µM | Lipid peroxidation inhibition 30% inhibitory concentration (ID30, oral administration) in ex vivo retina [2]: 12 mg/kg | Ex vivo lipid peroxidation inhibition inhibition ratio (%) Brain ([3]; brain homogenate): 77% | Ex vivo lipid peroxidation inhibition inhibition ratio (%) Heart ([3]; heart homogenate): 88% | Ex vivo lipid peroxidation inhibition inhibition ratio (%) Kidney ([3]; kidney homogenate): 89% | LD50 at 7 days [4]: > 1000 mg/kg | pIC50 [5]: 5.81
